In patent publication US20090099169A1, “Benzofuran Compounds As EP1 Receptor Antagonists” (GLAXO GROUP LIMITED, priority 2006, published 2009):
Counter-ions that a name gives are not always drawn.

Target: T1, human EP1 receptor (Homo sapiens, UniProt P34995)
T1 sequence (P34995 1-402): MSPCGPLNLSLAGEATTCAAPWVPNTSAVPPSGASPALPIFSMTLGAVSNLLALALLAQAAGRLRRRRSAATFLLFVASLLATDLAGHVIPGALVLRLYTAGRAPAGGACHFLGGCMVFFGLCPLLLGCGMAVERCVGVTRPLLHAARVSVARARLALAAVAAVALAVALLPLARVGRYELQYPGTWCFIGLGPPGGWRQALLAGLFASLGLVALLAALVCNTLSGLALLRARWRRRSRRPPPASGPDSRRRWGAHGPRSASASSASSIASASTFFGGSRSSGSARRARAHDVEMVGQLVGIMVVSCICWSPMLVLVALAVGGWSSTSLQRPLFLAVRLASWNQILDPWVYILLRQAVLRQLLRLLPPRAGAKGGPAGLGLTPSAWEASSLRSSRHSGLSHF
Experiment: Binding assay for the human prostanoid EP1 receptor (radioligand competition)
Set-up: expressed in transfected cells; host or cells: CHO-K1 (membranes)
Settings: CHO-K1 membranes; [3H]-PGE2 for Examples 1-17, 19, 33, 34, 60 and 61, 3-{2-[5-Bromo-2-(2,4-difluorobenzyloxy)-phenyl]-5-methyl-pyrrol-1-yl}-6-[3H3-methoxy]methoxy-benzoic acid for the remaining; averages of a number of experiments; read-out: pIC50 value (binding assay for the human prostanoid EP1 receptor) (converted)
Method in brief: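 Membranes from CHO-K1 cells stably expressing human EP1, in pH 6 MES buffer with 10 mM MgCl2. Competition with [3H]-PGE2 (3 nM final) for 30 min at 30 °C, or alternatively with a tritiated benzoic-acid ligand (0.2 nM final) for 45 min at 37 °C; filtration and scintillation counting, IC50 by non-linear fitting.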

SMILES	IC50 [nM]
Cc1cc(C(=O)NN2CCOCC2)nn1Cc1cc(Cl)cc2cc(C3CCCCC3)oc12 [Example 28, 1-[(5-Chloro-2-cyclohexyl-1-benzofuran-7-yl)methyl]-5-methyl-N-4-morpholinyl-1H-pyrazole-3-carboxamide]	≤ 100
CC(C)c1cc2cc(Cl)cc(Cc3ccc(C(=O)O)o3)c2o1 [Example 1, 5-{[5-Chloro-2-(1-methylethyl)-1-benzofuran-7-yl]methyl}-2-furancarboxylic Acid]	≤ 100
Cc1cc(C(=O)Nc2ccc(CN3CC[C@@H](O)C3)cc2)nn1Cc1cc(Cl)cc2cc(C(C)C)oc12 [Example 17, 1-{[5-Chloro-2-(1-methylethyl)-1-benzofuran-7-yl]methyl}-N-(4-{[(3R)-3-hydroxy-1-pyrrolidinyl]methyl}phenyl)-5-methyl-1H-pyrazole-3-carboxamide hydrochloride]	≤ 100
Cc1cc(C(=O)O)nn1Cc1cc(Cl)cc2cc(C(C)C)oc12 [Example 3, 1-{[5-Chloro-2-(1-methylethyl)-1-benzofuran-7-yl]methyl}-5-methyl-1H-pyrazole-3-carboxylic Acid]	≤ 100
CCNCc1ccc(NC(=O)c2cc(C)n(Cc3cc(Cl)cc4cc(C(C)C)oc34)n2)cc1 [Example 15, 1-{[5-Chloro-2-(1-methylethyl)-1-benzofuran-7-yl]methyl}-N-{4-[(ethylamino)methyl]phenyl}-5-methyl-1H-pyrazole-3-carboxamide hydrochloride]	≤ 100
Cc1cc(C(=O)Nc2ccc(CN3CCC(O)CC3)cc2)nn1Cc1cc(Cl)cc2cc(C(C)C)oc12 [Example 16, 1-{[5-Chloro-2-(1-methylethyl)-1-benzofuran-7-yl]methyl}-N-{4-[(4-hydroxy-1-piperidinyl)methyl]phenyl}-5-methyl-1H-pyrazole-3-carboxamide hydrochloride]	≤ 100
